Data set [1] is described as follows: Avibactam oral bioavailability in humans. The data set is classed as in vivo. The settings on record: human patients, oral avibactam derivative. An excerpt:
Avibactam derivatives, when orally administered, provide an enhanced oral bioavailability of the β-lactamase inhibitor compared to the oral bioavailability of the parent β-lactamase inhibitor. […] The oral bioavailability of avibactam in a human is about 7%.

Data set [2] can be described thus: Single ascending dose phase 1 study: pharmacokinetics of avibactam after oral avibactam derivative (3) in healthy human volunteers. The data set is classed as in vivo. The note with it: following oral administration of avibactam derivative (3). The method, then: The pharmacokinetics of avibactam provided as an orally administered avibactam derivative was determined on healthy human volunteers.
A randomized, double-blind, placebo-controlled single ascending dose phase 1 study was undertaken with healthy male and female adults. Three cohorts, each comprising 10 patients received a single oral dose of 300 mg, 900 mg, or 1,350 mg avibactam derivative (3) (ethyl 3-(((((1R,2S,5R)-2-carbamoyl-7-oxo-1,6-diazabicyclo[3.2.1]octan-6-yl)oxy)sulfonyl)oxy)-2,2-dimethylpropanoate) under fed conditions as a suspension of 10 mg/mL (n=8) or placebo (n−2).
Plasma and urine PK samples were collected prior to dosing and at frequent intervals after dosing.

The conditions of data set [3]: human, avibactam itself given orally; cited from earlier work.

The structures appear in SMILES notation. Structures can show the parent of a compound that is named as a salt.

These results are taken from patent publication US20240245705A1, “ORALLY ADMINISTERED COMBINATIONS OF AMOXICILLIN AND AVIBACTAM DERIVATIVES FOR TREATING MYCOBACTERIAL INFECTIONS” (Arixa Pharmaceuticals, Inc., priority 2019, published 2024).

For `CCOC(=O)C(C)(C)COS(=O)(=O)ON1C(=O)N2C[C@H]1CC[C@H]2C(N)=O` [avibactam derivative (3), ethyl 3-(((((1R,2S,5R)-2-carbamoyl-7-oxo-1,6-diazabicyclo[3.2.1]octan-6-yl)oxy)sulfonyl)oxy)-2,2-dimethylpropanoate], in data set [1], the avibactam oral bioavailability result is reported as “greater than 50 % F”. Further, in data set [2], the “clearance of avibactam in the systemic compartment” value is “rapid clearance”.
`NC(=O)[C@@H]1CC[C@@H]2CN1C(=O)N2OS(=O)(=O)O` [avibactam, [2S,5R]-2-carbamoyl-7-oxo-1,6-diazabicyclo[3.2.1]octan-6-yl hydrogen sulfate]: the “oral bioavailability of avibactam” value in data set [3] was “about 7%”.
